Measured values taken from the supplement of paper PMC10307832.

Legend:
Assay in all cases: relative viability (nuclei count vs DMSO), 5 days (fraction); higher = more cells survive
HCC-366 = test system: HCC-366
How it was run: (§1)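 Lung cancer cell lines in 1536-well plates were dosed by pin tool the day after seeding, either with one drug alone or with a fixed anchor-drug dose plus five library-drug doses (not always all listed) in √10 steps. After 5 days, cells were fixed and their nuclei stained in one step (final 0.05% Triton X-100, 1% formaldehyde, 1 ug/ml Hoechst), then counted on 4× images. Relative viability is the nuclei count in treated wells divided by that in vehicle wells. Values are medians of duplicate plates.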

NCI-H1666 = test system: NCI-H1666
How it was run: as §1

ChaGo-K-1 = test system: ChaGo-K-1
How it was run: as §1

COR-L 105 = test system: COR-L 105
How it was run: as §1

NCI-H1755 = test system: NCI-H1755
How it was run: as §1

LK-2 = test system: LK-2
How it was run: as §1

SK-MES-1 = test system: SK-MES-1
How it was run: as §1

NCI-H23 = test system: NCI-H23
How it was run: as §1

NCI-H596 = test system: NCI-H596
How it was run: as §1

H3255 = test system: H3255
How it was run: as §1

EMC-BAC-2 = test system: EMC-BAC-2
How it was run: as §1

SMILES: Clc1ccc(Nc2nnc(Cc3ccncc3)c3ccccc23)cc1 [Vatalanib] + Cc1cc(Nc2cc(N3CCN(C)CC3)nc(Sc3ccc(NC(=O)C4CC4)cc3)n2)n[nH]1 [Tozasertib] (partner 0.1 µM)
- relative viability (HCC-366; first compound 0.1265 µM): 0.0909
- relative viability (HCC-366; first compound 0.4 µM): 0.161
- relative viability (HCC-366; first compound 1.265 µM): 0.103
- relative viability (HCC-366; first compound 4 µM): 0.095
- relative viability (NCI-H1666; first compound 0.04 µM): 0.617
- relative viability (NCI-H1666; first compound 0.1265 µM): 0.569
- relative viability (NCI-H1666; first compound 0.4 µM): 0.615
- relative viability (NCI-H1666; first compound 1.265 µM): 0.568
- relative viability (NCI-H1666; first compound 4 µM): 0.55
- relative viability (ChaGo-K-1; first compound 0.04 µM): 0.241
- relative viability (ChaGo-K-1; first compound 0.1265 µM): 0.231
- relative viability (ChaGo-K-1; first compound 0.4 µM): 0.242
- relative viability (ChaGo-K-1; first compound 1.265 µM): 0.235
- relative viability (ChaGo-K-1; first compound 4 µM): 0.235
- relative viability (COR-L 105; first compound 0.04 µM): 0.339
- relative viability (COR-L 105; first compound 0.1265 µM): 0.344
- relative viability (COR-L 105; first compound 0.4 µM): 0.451
- relative viability (COR-L 105; first compound 1.265 µM): 0.35
- relative viability (COR-L 105; first compound 4 µM): 0.362
- relative viability (NCI-H1755; first compound 0.04 µM): 0.587
- relative viability (NCI-H1755; first compound 0.1265 µM): 0.612
- relative viability (NCI-H1755; first compound 0.4 µM): 0.701
- relative viability (NCI-H1755; first compound 1.265 µM): 0.58
- relative viability (NCI-H1755; first compound 4 µM): 0.628
- relative viability (LK-2; first compound 0.04 µM): 0.164
- relative viability (LK-2; first compound 0.1265 µM): 0.161
- relative viability (LK-2; first compound 0.4 µM): 0.173
- relative viability (LK-2; first compound 1.265 µM): 0.182
- relative viability (LK-2; first compound 4 µM): 0.203
- relative viability (SK-MES-1; first compound 0.04 µM): 0.951
- relative viability (SK-MES-1; first compound 0.1265 µM): 0.897
- relative viability (SK-MES-1; first compound 0.4 µM): 1.01
- relative viability (SK-MES-1; first compound 1.265 µM): 0.813
- relative viability (SK-MES-1; first compound 4 µM): 0.803
- relative viability (NCI-H23; first compound 0.04 µM): 0.435
- relative viability (NCI-H23; first compound 0.1265 µM): 0.373
- relative viability (NCI-H23; first compound 0.4 µM): 0.364
- relative viability (NCI-H23; first compound 1.265 µM): 0.314
- relative viability (NCI-H23; first compound 4 µM): 0.578
- relative viability (NCI-H596; first compound 0.04 µM): 0.783
- relative viability (NCI-H596; first compound 0.1265 µM): 0.821
- relative viability (NCI-H596; first compound 0.4 µM): 0.831
- relative viability (NCI-H596; first compound 1.265 µM): 0.747
- relative viability (NCI-H596; first compound 4 µM): 0.952
- relative viability (H3255; first compound 0.04 µM): 0.626
- relative viability (H3255; first compound 0.1265 µM): 0.619
- relative viability (H3255; first compound 0.4 µM): 0.637
- relative viability (H3255; first compound 1.265 µM): 0.75
- relative viability (H3255; first compound 4 µM): 0.63
- relative viability (EMC-BAC-2; first compound 0.04 µM): 0.218
- relative viability (EMC-BAC-2; first compound 0.1265 µM): 0.302
- relative viability (EMC-BAC-2; first compound 0.4 µM): 0.308
- relative viability (EMC-BAC-2; first compound 1.265 µM): 0.264
- relative viability (EMC-BAC-2; first compound 4 µM): 0.305
